From patent US9029368B2, “3,7-disubstituted octahydro-2H-pyrido[4,3-E][1,3]oxazin-2-one antibiotics” (Actelion Pharmaceuticals Ltd., priority 2011, dated 2015) come the findings set out here.

The experiment deals with S. aureus 29213. The experiment can be described thus: Bacterial growth minimal inhibitory concentrations (microdilution in cation-adjusted Mueller-Hinton Broth, CLSI M7-A7). In kind it is cell-based. To be noted: Staphylococcus aureus, 29213, microdilution method. How it is done: Bacterial Growth Minimal Inhibitory Concentrations: Minimal inhibitory concentrations (MICs; mg/l) were determined in cation-adjusted Mueller-Hinton Broth by a microdilution method following the description given in “Methods for Dilution Antimicrobial Susceptibility Tests for Bacteria that Grow Aerobically”, Approved standard, 7th ed., Clinical and Laboratory Standards Institute (CLSI) Document M7-A7, Wayne, Pa., USA, 2006. All Example compounds were tested against several Gram positive and Gram negative bacteria.
Background: Dilution methods test growth across graded concentrations, often in twofold steps.

Values after ≈ are worked out from the molar mass of the structure shown.

Take `COc1ccc2ncc(F)c(CCN3CC[C@@H]4CN(c5cc6c(nn5)OCCS6)C(=O)O[C@H]4C3)c2n1` (racemic) [Example 27, rac-(4aR*,8aR*)-3-(6,7-dihydro-8-oxa-5-thia-1,2-diaza-naphthalen-3-yl)-7-[2-(3-fluoro-6-methoxy-[1,5]naphthyridin-4-yl)-ethyl]-octahydro-pyrido[4,3-e][1,3]oxazin-2-one]: the MIC (usually the least concentration at which growth counts as inhibited) was ≤ 0.031 µg/mL. With `COc1ccc2ccc(=O)n(CCN3CC[C@@H]4CN(c5ccc6c(c5)NC(=O)CS6)C(=O)O[C@H]4C3)c2n1` (racemic) [Example 31, rac-(4aR*,8aR*)-7-(2-(7-methoxy-2-oxo-1,8-naphthyridin-1(2H)-yl)ethyl)-3-(3-oxo-3,4-dihydro-2H-benzo[b][1,4]thiazin-6-yl)octahydro-2H-pyrido[4,3-e][1,3]oxazin-2-one], the minimum inhibitory concentration (MIC) is ≤ 0.031 µg/mL. In the case of `COc1ccc2ncc(F)c(CCN3CC[C@@H]4CN(c5cc6c(cn5)OCCO6)C(=O)O[C@H]4C3)c2n1` (racemic) [Example 24, rac-(4aR*,8aR*)-3-(2,3-dihydro-[1,4]dioxino[2,3-c]pyridin-7-yl)-7-[2-(3-fluoro-6-methoxy-[1,5]naphthyridin-4-yl)-ethyl]-octahydro-pyrido[4,3-e][1,3]oxazin-2-one] it was ≤ 0.031 µg/mL; in that of `COc1cnc2ccc(F)c(C(O)CN3CC[C@@H]4CN(c5ccc6c(c5)OCCO6)C(=O)O[C@H]4C3)c2n1` (mixture of isomers) [Example 17, (4aR*,8aR*)-3-(2,3-dihydro-benzo[1,4]dioxin-6-yl)-7-[(2RS)-2-(6-fluoro-3-methoxy-quinoxalin-5-yl)-2-hydroxy-ethyl]-octahydro-pyrido[4,3-e][1,3]oxazin-2-one], 0.063 µg/mL (≈ 0.123 µM). For the molecule `COc1cnc2ccc(=O)n(CCN3CC[C@@H]4CN(c5ccc6c(c5)OCCO6)C(=O)O[C@H]4C3)c2n1` (racemic) [Example 12, rac-(4aR*,8aR*)-3-(2,3-dihydro-benzo[1,4]dioxin-6-yl)-7-[2-(3-methoxy-6-oxo-6H-pyrido[2,3-b]pyrazin-5-yl)-ethyl]-octahydro-pyrido[4,3-e][1,3]oxazin-2-one], the MIC was ≤ 0.031 µg/mL. For `COc1ccc2ccc(=O)n(CCN3CC[C@@H]4CN(c5ccc6c(c5)OCCO6)C(=O)O[C@H]4C3)c2n1` (racemic) [Example 10, rac-(4aR*,8aR*)-3-(2,3-dihydro-benzo[1,4]dioxin-6-yl)-7-[2-(7-methoxy-2-oxo-2H-[1,8]naphthyridin-1-yl)-ethyl]-octahydro-pyrido[4,3-e][1,3]oxazin-2-one] the value was ≤ 0.031 µg/mL. In the case of `COc1ccc2ncc(F)c(CCN3CC[C@@H]4CN(c5ccc6c(n5)NC(=O)CS6)C(=O)O[C@H]4C3)c2n1` (single isomer, unassigned) [Example 20] it was ≤ 0.031 µg/mL. For `COc1ccc2ccc(=O)n(CCN3CC[C@@H]4CN(c5ccc6c(c5)NC(=O)CO6)C(=O)O[C@H]4C3)c2n1` (racemic) [Example 34, rac-(4aR*,8aR*)-7-(2-(7-methoxy-2-oxo-1,8-naphthyridin-1(2H)-yl)ethyl)-3-(3-oxo-3,4-dihydro-2H-benzo[b][1,4]oxazin-6-yl)octahydro-2H-pyrido[4,3-e][1,3]oxazin-2-one] the value was 0.25 µg/mL (≈ 0.495 µM); for `COc1ccc2ncc(F)c(CCN3CC[C@@H]4CN(c5cnc6c(c5)OCCO6)C(=O)O[C@H]4C3)c2n1` (racemic) [Example 22, rac-(4aR*,8aR*)-3-(2,3-dihydro-[1,4]dioxino[2,3-b]pyridin-7-yl)-7-[2-(3-fluoro-6-methoxy-[1,5]naphthyridin-4-yl)-ethyl]-octahydro-pyrido[4,3-e][1,3]oxazin-2-one], ≤ 0.031 µg/mL. Regarding `COc1ccc2ccc(=O)n(CCN3CC[C@@H]4CN(c5ccc6c(c5)OCCO6)C(=O)O[C@H]4C3)c2c1` (racemic) [Example 8, rac-(4aR*,8aR*)-3-(2,3-dihydro-benzo[1,4]dioxin-6-yl)-7-[2-(7-methoxy-2-oxo-2H-quinolin-1-yl)-ethyl]-octahydro-pyrido[4,3-e][1,3]oxazin-2-one], the MIC was ≤ 0.031 µg/mL. Consider `COc1ccc2ncc(F)c(CCN3CC[C@@H]4CN(c5ccc6c(n5)NC(=O)CO6)C(=O)O[C@H]4C3)c2n1` (racemic) [Example 19, rac-(4aR*,8aR*)-7-[2-(3-fluoro-6-methoxy-[1,5]naphthyridin-4-yl)-ethyl]3-(3-oxo-3,4-dihydro-2H-pyrido[3,2-b][1,4]oxazin-6-yl)-octahydro-pyrido[4,3-e][1,3]oxazin-2-one], for which the MIC is ≤ 0.031 µg/mL. In the case of `COc1ccc2ncc(F)c(CCN3CC[C@@H]4CN(c5ccc6c(c5)NC(=O)CS6)C(=O)O[C@H]4C3)c2n1` (racemic) [Example 7, rac-(4aR*,8aR*)-7-[2-(3-fluoro-6-methoxy-[1,5]naphthyridin-4-yl)-ethyl]-3-(3-oxo-3,4-dihydro-2H-benzo[1,4]thiazin-6-yl)-octahydro-pyrido[4,3-e][1,3]oxazin-2-one] it was ≤ 0.031 µg/mL; in that of `COc1ccc2ncc(F)c(C(O)CN3CC[C@@H]4CN(c5ccc6c(c5)OCCO6)C(=O)O[C@H]4C3)c2n1` (mixture of isomers) [Example 6, (4aR*,8aR*)-3-(2,3-dihydro-benzo[1,4]dioxin-6-yl)-7-[(2RS)-2-(3-fluoro-6-methoxy-[1,5]naphthyridin-4-yl)-2-hydroxy-ethyl]-octahydro-pyrido[4,3-e][1,3]oxazin-2-one], 0.063 µg/mL (≈ 0.123 µM); in that of `COc1ccc2ncc(F)c([C@@H](O)CN3CC[C@@H]4CN(c5ccc6c(c5)OCCO6)C(=O)O[C@H]4C3)c2n1` (mixture of isomers) [Example 13, (4aR*,8aR*)-3-(2,3-dihydro-benzo[1,4]dioxin-6-yl)-7-[(R)-2-(3-fluoro-6-methoxy-[1,5]naphthyridin-4-yl)-2-hydroxy-ethyl]-octahydro-pyrido[4,3-e][1,3]oxazin-2-one], 0.063 µg/mL.

For the molecule `O=C1O[C@H]2CN(C[C@H]3Cc4c(F)ccc5ccc(=O)n3c45)CC[C@@H]2CN1c1ccc2c(c1)OCCO2` (relative stereo) [Example 29, (R)-2-[(4aR*,8aR*)-3-(2,3-dihydro-benzo[1,4]dioxin-6-yl)-2-oxo-octahydro-pyrido[4,3-e][1,3]oxazin-7-ylmethyl]-9-fluoro-1,2-dihydro-pyrrolo[3,2,1-ij]quinolin-4-one], 0.25 µg/mL (≈ 0.509 µM) was the least that counted as inhibitory (MIC).

`COc1ccc2ncc(=O)n(CCN3CC[C@@H]4CN(c5ccc6c(c5)OCCO6)C(=O)O[C@H]4C3)c2c1` (racemic) [Example 9, rac-(4aR*,8aR*)-3-(2,3-dihydro-benzo[1,4]dioxin-6-yl)-7-[2-(7-methoxy-2-oxo-2H-quinoxalin-1-yl)-ethyl]-octahydro-pyrido[4,3-e][1,3]oxazin-2-one]: the MIC is ≤ 0.031 µg/mL. For `COc1ccc2ncc(F)c(C(O)CN3CC[C@@H]4CN(c5ccc6c(c5)NC(=O)CO6)C(=O)O[C@H]4C3)c2n1` (mixture of isomers) [Example 32, (4aR*,8aR*)-7-((2RS)-2-(3-fluoro-6-methoxy-1,5-naphthyridin-4-yl)-2-hydroxyethyl)-3-(3-oxo-3,4-dihydro-2H-benzo[b][1,4]oxazin-6-yl)octahydro-2H-pyrido[4,3-e][1,3]oxazin-2-one] the value was 0.125 µg/mL (≈ 0.239 µM); for `COc1ccc2ncc(F)c(CCN3CC[C@@H]4CN(c5ccc6c(c5)OCCO6)C(=O)O[C@H]4C3)c2n1` (single isomer, unassigned) [Example 1], ≤ 0.031 µg/mL. For `COc1ccc2ccc(F)c(C(O)CN3CC[C@@H]4CN(c5ccc6c(c5)OCCO6)C(=O)O[C@H]4C3)c2n1` (mixture of isomers) [Example 16, (4aR*,8aR*)-3-(2,3-dihydro-benzo[1,4]dioxin-6-yl)-7-[(2RS)-2-(7-fluoro-2-methoxy-quinolin-8-yl)-2-hydroxy-ethyl]-octahydro-pyrido[4,3-e][1,3]oxazin-2-one] the value was 0.125 µg/mL (≈ 0.245 µM); for `COc1ccc2nccc(C(O)CN3CC[C@@H]4CN(c5ccc6c(c5)OCCO6)C(=O)O[C@H]4C3)c2n1` (mixture of isomers) [Example 3, (4aR*,8aR*)-3-(2,3-dihydro-benzo[1,4]dioxin-6-yl)-7-[(2RS)-2-hydroxy-2-(6-methoxy-[1,5]naphthyridin-4-yl)-ethyl]-octahydro-pyrido[4,3-e][1,3]oxazin-2-one], 0.125 µg/mL (≈ 0.254 µM).

For the molecule `COc1ccc2nccc(CCN3CC[C@@H]4CN(c5ccc6c(c5)OCCO6)C(=O)O[C@H]4C3)c2n1` (racemic) [Example 4, rac-(4aR*,8aR*)-3-(2,3-dihydro-benzo[1,4]dioxin-6-yl)-7-[2-(6-methoxy-[1,5]naphthyridin-4-yl)-ethyl]-octahydro-pyrido[4,3-e][1,3]oxazin-2-one], 0.063 µg/mL (≈ 0.132 µM) was the least that counted as inhibitory (MIC). Molecule `COc1cnc2cccc(C(O)CN3CC[C@@H]4CN(c5ccc6c(c5)OCCO6)C(=O)O[C@H]4C3)c2n1` (mixture of isomers) [Example 18, (4aR*,8aR*)-3-(2,3-dihydro-benzo[1,4]dioxin-6-yl)-7-[(2RS)-2-hydroxy-2-(3-methoxy-quinoxalin-5-yl)-ethyl]-octahydro-pyrido[4,3-e][1,3]oxazin-2-one] came in with a minimal inhibitory concentration (MIC) of 0.063 µg/mL (≈ 0.128 µM). For `COc1ccc2ncc(=O)n(CCN3CC[C@@H]4CN(c5ccc6c(c5)OCCO6)C(=O)O[C@H]4C3)c2n1` (racemic) [Example 11, rac-(4aR*,8aR*)-3-(2,3-dihydro-benzo[1,4]dioxin-6-yl)-7-[2-(6-methoxy-3-oxo-3H-pyrido[2,3-b]pyrazin-4-yl)-ethyl]-octahydro-pyrido[4,3-e][1,3]oxazin-2-one] the value was ≤ 0.031 µg/mL. In the case of `COc1ccc2ncc(F)c([C@H](O)CN3CC[C@@H]4CN(c5ccc6c(c5)OCCO6)C(=O)O[C@H]4C3)c2n1` (single isomer, unassigned) [Example 15] it was 0.063 µg/mL (≈ 0.123 µM); in that of `COc1ccc2ncc(F)c(CCN3CC[C@@H]4CN(c5cc6c(nn5)OCCO6)C(=O)O[C@H]4C3)c2n1` (racemic) [Example 23, rac-(4aR*,8aR*)-3-(6,7-dihydro-[1,4]dioxino[2,3-c]pyridazin-3-yl)-7-[2-(3-fluoro-6-methoxy-[1,5]naphthyridin-4-yl)-ethyl]-octahydro-pyrido[4,3-e][1,3]oxazin-2-one], ≤ 0.031 µg/mL; in that of `COc1ccc2ncc(F)c(CCN3CC[C@H]4CN(c5ccc6c(c5)OCCO6)C(=O)O[C@@H]4C3)c2n1` (single isomer, unassigned) [Example 2], ≤ 0.031 µg/mL.
